According to the supplement of paper PMC10307832:

What was measured:
Assay in all cases: relative viability (nuclei count vs DMSO), 5 days (fraction); higher = more cells survive
[1] = tested on: NCI-H2023
Outline: (§1)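 Cells from lung cancer lines were seeded into 1536-well plates and, one day later, dosed by pin tool. Treatments were either a single drug or a fixed dose of an anchor drug with five library-drug doses (not always all listed) in √10 steps. After 5 days, nuclei were stained in a one-step fixation (final 0.05% Triton X-100, 1% formaldehyde, 1 ug/ml Hoechst) and counted on 4× images, and relative viability is the treated-to-vehicle nuclei ratio, as the median of duplicate plates.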

[2] = tested on: NCI-H460
Outline: as §1

[3] = tested on: BEN
Outline: as §1

[4] = tested on: LOU-NH91
Outline: as §1

[5] = tested on: NCI-H1563
Outline: as §1

[6] = tested on: NCI-H1395
Outline: as §1

[7] = tested on: PC-3 [JPC-3]
Outline: as §1

[8] = tested on: NCI-H2126
Outline: as §1

[9] = tested on: LXF-289
Outline: as §1

[10] = tested on: LU99A
Outline: as §1

[11] = tested on: NCI-H1666
Outline: as §1

[12] = tested on: NCI-H1915
Outline: as §1

[13] = tested on: NCI-H322M
Outline: as §1

[14] = tested on: NCI-H23
Outline: as §1

[15] = tested on: SK-LU-1
Outline: as §1

[16] = tested on: HARA
Outline: as §1

[17] = tested on: A-427
Outline: as §1

[18] = tested on: NCI-H441
Outline: as §1

[19] = tested on: NCI-H1793
Outline: as §1

[20] = tested on: LCLC-97TM1
Outline: as §1

[21] = tested on: NCI-H2170
Outline: as §1

COCC1(CO)C(=O)C2CCN1CC2 (stereo not drawn) [PRIMA-1MET] + C[C@]1(O)C[C@@H](c2nc(-c3ccc4ccc(-c5ccccc5)nc4c3)c3c(N)nccn32)C1 [Linsitinib] (partner 1 µM)
relative viability ([1]; first compound 0.2 µM): 0.784
relative viability ([1]; first compound 0.6325 µM): 0.65
relative viability ([1]; first compound 2 µM): 0.7
relative viability ([1]; first compound 6.325 µM): 0.668
relative viability ([1]; first compound 20 µM): 0.609
relative viability ([2]; first compound 0.2 µM): 1.08
relative viability ([2]; first compound 0.6325 µM): 0.545
relative viability ([2]; first compound 2 µM): 0.613
relative viability ([2]; first compound 6.325 µM): 0.0073
relative viability ([2]; first compound 20 µM): 0.0038
relative viability ([3]; first compound 0.2 µM): 1.04
relative viability ([3]; first compound 0.6325 µM): 0.765
relative viability ([3]; first compound 6.325 µM): 1.08
relative viability ([3]; first compound 20 µM): 0.85
relative viability ([4]; first compound 0.2 µM): 1.02
relative viability ([4]; first compound 0.6325 µM): 0.771
relative viability ([4]; first compound 2 µM): 0.773
relative viability ([4]; first compound 6.325 µM): 1.01
relative viability ([4]; first compound 20 µM): 0.582
relative viability ([5]; first compound 0.2 µM): 1.25
relative viability ([5]; first compound 0.6325 µM): 1.14
relative viability ([5]; first compound 2 µM): 1.15
relative viability ([5]; first compound 6.325 µM): 1.23
relative viability ([5]; first compound 20 µM): 0.368
relative viability ([6]; first compound 0.2 µM): 1.1
relative viability ([6]; first compound 0.6325 µM): 0.909
relative viability ([6]; first compound 2 µM): 0.958
relative viability ([6]; first compound 6.325 µM): 1.61
relative viability ([6]; first compound 20 µM): 0.859
relative viability ([7]; first compound 0.2 µM): 1
relative viability ([7]; first compound 0.6325 µM): 0.92
relative viability ([7]; first compound 2 µM): 0.979
relative viability ([7]; first compound 6.325 µM): 1.02
relative viability ([7]; first compound 20 µM): 0.91
relative viability ([8]; first compound 0.2 µM): 0.726
relative viability ([8]; first compound 0.6325 µM): 0.692
relative viability ([8]; first compound 2 µM): 0.636
relative viability ([8]; first compound 6.325 µM): 0.732
relative viability ([8]; first compound 20 µM): 0.67
relative viability ([9]; first compound 0.2 µM): 1.02
relative viability ([9]; first compound 0.6325 µM): 0.958
relative viability ([9]; first compound 2 µM): 1.04
relative viability ([9]; first compound 6.325 µM): 0.999
relative viability ([9]; first compound 20 µM): 0.89
relative viability ([10]; first compound 0.2 µM): 0.629
relative viability ([10]; first compound 0.6325 µM): 0.439
relative viability ([10]; first compound 2 µM): 0.567
relative viability ([10]; first compound 6.325 µM): 0.526
relative viability ([10]; first compound 20 µM): 0.189
relative viability ([11]; first compound 0.2 µM): 0.794
relative viability ([11]; first compound 0.6325 µM): 0.781
relative viability ([11]; first compound 2 µM): 0.833
relative viability ([11]; first compound 6.325 µM): 0.742
relative viability ([11]; first compound 20 µM): 0.134
relative viability ([12]; first compound 0.2 µM): 1.26
relative viability ([12]; first compound 0.6325 µM): 0.933
relative viability ([12]; first compound 2 µM): 1.03
relative viability ([12]; first compound 6.325 µM): 1.11
relative viability ([12]; first compound 20 µM): 1.08
relative viability ([13]; first compound 0.2 µM): 0.932
relative viability ([13]; first compound 6.325 µM): 0.942
relative viability ([13]; first compound 20 µM): 0.862
relative viability ([14]; first compound 0.2 µM): 0.692
relative viability ([14]; first compound 0.6325 µM): 0.443
relative viability ([14]; first compound 2 µM): 0.419
relative viability ([14]; first compound 6.325 µM): 0.416
relative viability ([14]; first compound 20 µM): 0.113
relative viability ([15]; first compound 0.2 µM): 1.24
relative viability ([15]; first compound 0.6325 µM): 1.03
relative viability ([15]; first compound 2 µM): 1.14
relative viability ([15]; first compound 6.325 µM): 1.06
relative viability ([15]; first compound 20 µM): 0.458
relative viability ([16]; first compound 0.2 µM): 1.16
relative viability ([16]; first compound 0.6325 µM): 0.265
relative viability ([16]; first compound 6.325 µM): 0.903
relative viability ([16]; first compound 20 µM): 0.874
relative viability ([17]; first compound 0.2 µM): 1.19
relative viability ([17]; first compound 0.6325 µM): 0.703
relative viability ([17]; first compound 2 µM): 0.953
relative viability ([17]; first compound 6.325 µM): 1.12
relative viability ([17]; first compound 20 µM): 1.08
relative viability ([18]; first compound 0.2 µM): 0.556
relative viability ([18]; first compound 0.6325 µM): 0.517
relative viability ([18]; first compound 2 µM): 0.458
relative viability ([18]; first compound 6.325 µM): 0.524
relative viability ([18]; first compound 20 µM): 0.24
relative viability ([19]; first compound 0.2 µM): 0.878
relative viability ([19]; first compound 0.6325 µM): 0.777
relative viability ([19]; first compound 6.325 µM): 1.04
relative viability ([19]; first compound 20 µM): 0.581
relative viability ([20]; first compound 0.2 µM): 0.213
relative viability ([20]; first compound 2 µM): 0.183
relative viability ([20]; first compound 6.325 µM): 0.199
relative viability ([20]; first compound 20 µM): 0.117

COCC1(CO)C(=O)C2CCN1CC2 (stereo not drawn) [PRIMA-1MET] + Cc1nc(NC(=O)N2CCC[C@H]2C(N)=O)sc1-c1ccnc(C(C)(C)C(F)(F)F)c1 [Alpelisib] (partner 2 µM)
relative viability ([1]; first compound 0.2 µM): 0.7
relative viability ([1]; first compound 0.6325 µM): 0.69
relative viability ([1]; first compound 2 µM): 0.564
relative viability ([1]; first compound 6.325 µM): 0.615
relative viability ([1]; first compound 20 µM): 0.568
relative viability ([2]; first compound 0.2 µM): 0.571
relative viability ([2]; first compound 0.6325 µM): 0.358
relative viability ([2]; first compound 2 µM): 0.411
relative viability ([2]; first compound 6.325 µM): 0.0066
relative viability ([2]; first compound 20 µM): 0.0038
relative viability ([3]; first compound 0.2 µM): 1.26
relative viability ([3]; first compound 0.6325 µM): 0.833
relative viability ([3]; first compound 6.325 µM): 0.909
relative viability ([3]; first compound 20 µM): 0.994
relative viability ([4]; first compound 0.2 µM): 0.78
relative viability ([4]; first compound 0.6325 µM): 0.652
relative viability ([4]; first compound 2 µM): 0.569
relative viability ([4]; first compound 6.325 µM): 0.669
relative viability ([4]; first compound 20 µM): 0.507
relative viability ([5]; first compound 0.2 µM): 0.889
relative viability ([5]; first compound 0.6325 µM): 0.904
relative viability ([5]; first compound 2 µM): 0.915
relative viability ([5]; first compound 6.325 µM): 1.05
relative viability ([5]; first compound 20 µM): 0.361
relative viability ([6]; first compound 0.2 µM): 1.13
relative viability ([6]; first compound 0.6325 µM): 0.737
relative viability ([6]; first compound 2 µM): 0.977
relative viability ([6]; first compound 6.325 µM): 0.993
relative viability ([6]; first compound 20 µM): 0.635
relative viability ([7]; first compound 0.2 µM): 1.1
relative viability ([7]; first compound 0.6325 µM): 0.942
relative viability ([7]; first compound 2 µM): 1.02
relative viability ([7]; first compound 6.325 µM): 1.07
relative viability ([7]; first compound 20 µM): 1.06
relative viability ([8]; first compound 0.2 µM): 0.822
relative viability ([8]; first compound 0.6325 µM): 0.749
relative viability ([8]; first compound 2 µM): 0.743
relative viability ([8]; first compound 6.325 µM): 0.848
relative viability ([8]; first compound 20 µM): 0.706
relative viability ([9]; first compound 0.2 µM): 1.13
relative viability ([9]; first compound 0.6325 µM): 0.973
relative viability ([9]; first compound 2 µM): 1.08
relative viability ([9]; first compound 6.325 µM): 1.04
relative viability ([9]; first compound 20 µM): 0.939
relative viability ([21]; first compound 0.2 µM): 0.889
relative viability ([21]; first compound 0.6325 µM): 0.749
relative viability ([21]; first compound 2 µM): 0.864
relative viability ([21]; first compound 6.325 µM): 0.847
relative viability ([21]; first compound 20 µM): 0.733
relative viability ([10]; first compound 0.2 µM): 0.631
relative viability ([10]; first compound 0.6325 µM): 0.457
relative viability ([10]; first compound 2 µM): 0.488
relative viability ([10]; first compound 6.325 µM): 0.293
relative viability ([10]; first compound 20 µM): 0.0448
relative viability ([11]; first compound 0.2 µM): 1.1
relative viability ([11]; first compound 0.6325 µM): 0.879
relative viability ([11]; first compound 2 µM): 0.999
relative viability ([11]; first compound 6.325 µM): 0.834
relative viability ([11]; first compound 20 µM): 0.123
relative viability ([12]; first compound 0.2 µM): 1.15
relative viability ([12]; first compound 0.6325 µM): 0.861
relative viability ([12]; first compound 2 µM): 0.853
relative viability ([12]; first compound 6.325 µM): 1.01
relative viability ([12]; first compound 20 µM): 0.974
relative viability ([13]; first compound 0.2 µM): 0.942
relative viability ([13]; first compound 6.325 µM): 0.907
relative viability ([13]; first compound 20 µM): 0.671
relative viability ([14]; first compound 0.2 µM): 0.793
relative viability ([14]; first compound 0.6325 µM): 0.583
relative viability ([14]; first compound 2 µM): 0.555
relative viability ([14]; first compound 6.325 µM): 0.669
relative viability ([14]; first compound 20 µM): 0.111
relative viability ([15]; first compound 0.2 µM): 1.11
relative viability ([15]; first compound 0.6325 µM): 0.918
relative viability ([15]; first compound 2 µM): 1.04
relative viability ([15]; first compound 6.325 µM): 0.99
relative viability ([15]; first compound 20 µM): 0.109
relative viability ([16]; first compound 0.2 µM): 0.97
relative viability ([16]; first compound 0.6325 µM): 0.603
relative viability ([16]; first compound 6.325 µM): 0.836
relative viability ([16]; first compound 20 µM): 0.954
relative viability ([17]; first compound 0.2 µM): 1.04
relative viability ([17]; first compound 0.6325 µM): 1.05
relative viability ([17]; first compound 2 µM): 0.9
relative viability ([17]; first compound 6.325 µM): 1.04
relative viability ([17]; first compound 20 µM): 1.07
relative viability ([18]; first compound 0.2 µM): 0.648
relative viability ([18]; first compound 0.6325 µM): 0.792
relative viability ([18]; first compound 2 µM): 0.762
relative viability ([18]; first compound 6.325 µM): 0.816
relative viability ([18]; first compound 20 µM): 0.118
relative viability ([19]; first compound 0.2 µM): 0.953
relative viability ([19]; first compound 0.6325 µM): 0.676
relative viability ([19]; first compound 6.325 µM): 0.736
relative viability ([19]; first compound 20 µM): 0.707
relative viability ([20]; first compound 0.2 µM): 0.277
relative viability ([20]; first compound 2 µM): 0.22
relative viability ([20]; first compound 6.325 µM): 0.232
relative viability ([20]; first compound 20 µM): 0.0607
